Results taken from US20240116985A1, “STAPLED PEPTIDES AND METHODS THEREOF” (priority 2020, published 2024).
In brackets after ≈: the same amount, converted by molar mass. Read-outs that look alike come from different tables or passages of the source.

Legend:
[1] = molecular target: T1, beta-catenin/TCF4 engagement (Homo sapiens, UniProt P35222); assay: Nano-BRET target engagement assay (B-cat-Halo & TCF4-Luc in HEK293 cells); type: cell-based; conditions: read-out: NanoBRET Abs IC50
T1 construct: expressed in transfected cells; host or cells: HEK293
T1 sequence (P35222 1-781): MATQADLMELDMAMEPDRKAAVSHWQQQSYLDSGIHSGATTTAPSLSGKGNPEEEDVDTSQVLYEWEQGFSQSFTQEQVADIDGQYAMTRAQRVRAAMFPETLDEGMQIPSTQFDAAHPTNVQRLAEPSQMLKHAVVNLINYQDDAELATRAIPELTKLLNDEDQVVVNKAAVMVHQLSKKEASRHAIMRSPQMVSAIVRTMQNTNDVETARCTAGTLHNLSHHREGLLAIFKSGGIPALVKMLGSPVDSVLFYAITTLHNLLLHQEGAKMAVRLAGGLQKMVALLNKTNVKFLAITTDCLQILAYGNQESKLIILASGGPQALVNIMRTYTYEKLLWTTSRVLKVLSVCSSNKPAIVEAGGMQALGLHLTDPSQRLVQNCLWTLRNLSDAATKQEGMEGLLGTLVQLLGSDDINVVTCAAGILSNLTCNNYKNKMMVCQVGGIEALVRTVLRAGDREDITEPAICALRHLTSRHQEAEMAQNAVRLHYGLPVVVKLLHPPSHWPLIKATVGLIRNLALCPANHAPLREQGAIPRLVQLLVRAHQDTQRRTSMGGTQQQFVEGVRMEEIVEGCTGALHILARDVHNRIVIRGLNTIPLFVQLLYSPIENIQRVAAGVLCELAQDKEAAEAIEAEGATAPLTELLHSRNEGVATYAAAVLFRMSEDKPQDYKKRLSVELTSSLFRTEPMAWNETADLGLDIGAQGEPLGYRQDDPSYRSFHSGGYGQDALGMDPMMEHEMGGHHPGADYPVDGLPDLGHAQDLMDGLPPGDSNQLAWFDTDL

[2] = molecular target: T2, full-length beta-Catenin (Uniprot ID P35222) (Homo sapiens, UniProt P35222); assay: Fluorescence polarization IC50 (beta-catenin / 5FAM-TCF4 10-53 competition); type: binding
T2 construct: 10 nM full-length beta-Catenin (Uniprot ID P35222)
T2 sequence (P35222 1-781): T1 sequence (P35222 1-781)

CHI Log D procedure = type: physicochemical; conditions: for chromatographic logD: pH 7.4, CHI Log D
Solubility in PBS = type: physicochemical
Procedure, shortened: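 Read-out is the HPLC peak area of the supernatant from ultracentrifuged PBS solution, scaled against a 50 μM peptide DMSO injection; value reported as [(PBS area)/(DMSO area)]*50 uM.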

[3] = fluorescence polarization, read-out: beta-Catenin FP IC50

SMILES	IC50 [1] [nM]	IC50 ([2]; read-out: beta-Catenin FP IC50) [nM]	chromatographic logD (CHI Log D procedure)	Solubility (Solubility in PBS; Solubility (uM)) [µM]	IC50 ([1]; absolute IC50) [nM]	IC50 [2, 3] [nM]	IC50 ([2]; read-out: FP EC50) [nM]	CHI Log D (CHI Log D procedure; pH 7.4)	Solubility (Solubility in PBS) [µM]
CC(=O)N1CCC[C@]12CC=CCCCC1(CCCC=CCCCOC(=O)N3CC[C@@](C(=O)N[C@@H](Cc4ccsc4)C(=O)N[C@@H](Cc4csc5ccccc45)C(=O)N[C@@H](CC(N)=O)C(=O)N[C@@H](C)C(N)=O)(C3)NC(=O)[C@H](CC(N)=O)NC(=O)[C@H](Cc3ccccc3)NC(=O)[C@H](C)NC(=O)[C@H](C)NC(=O)[C@H](CC(=O)O)NC(=O)[C@H](CC(=O)O)NC1=O)NC(=O)[C@H](CC(C)(C)C)NC(=O)[C@H](CC(=O)O)NC2=O (stereo partly drawn) [I-821, Ac-PL3-Asp-Npg-B5-Asp-Asp-Ala-Ala-Phe-Asn-PyrS2-3Thi-BztA-Asn-Ala-NH2]	9100	5	2.07	36 (≈ 71.1 µg/mL)	–	–	–	–	–
CC(=O)N1CCC[C@]12CC=CCCCC1(CCCC=CCCCOC(=O)N3CC[C@@](C(=O)N[C@@H](Cc4ccccc4F)C(=O)N[C@@H](Cc4csc5ccccc45)C(=O)N[C@@H](CO)C(N)=O)(C3)NC(=O)[C@H]([C@@H](C)O)NC(=O)[C@H](Cc3ccccc3)NC(=O)[C@H](C)NC(=O)[C@H](C)NC(=O)[C@H](CC(=O)O)NC(=O)[C@H](CC(=O)O)NC1=O)NC(=O)[C@H](CC(C)(C)C)NC(=O)[C@H](CC(=O)O)NC2=O (stereo partly drawn) [I-1023, Ac-PL3-Asp-Npg-B5-Asp-Asp-Ala-Ala-Phe-Thr-PyrS2-2FF-BztA-Ser-NH2]	15000	10	2.17	46 (≈ 86.3 µg/mL)	–	–	–	–	–
CC(=O)N1CCC[C@]12CC=CCCCC1(CCCC=CCCCCCC[C@@](C)(C(=O)N[C@@H](Cc3ccccc3)C(=O)N[C@@H](Cc3csc4ccccc34)C(=O)N[C@@H](Cc3c[nH]cn3)C(N)=O)NC(=O)[C@H](CC(N)=O)NC(=O)[C@H](Cc3ccccc3)NC(=O)[C@H](C)NC(=O)[C@H](C)NC(=O)[C@H](CC(=O)O)NC(=O)[C@H](CC(=O)O)NC1=O)NC(=O)[C@H](CC(C)C)NC(=O)[C@H](CC(=O)O)NC2=O (stereo partly drawn) [I-564, Ac-PL3-Asp-Leu-B5-Asp-Asp-Ala-Ala-Phe-Asn-S8-Phe-BztA-His-NH2]	–	–	–	–	> 20000	36	36	2.374	47 (≈ 87.6 µg/mL)
COc1ccccc1C[C@H](NC(=O)[C@]1(C)CCCCCCC=CCCCC2(CCCC=CC[C@]3(CCCN3C(C)=O)C(=O)N[C@@H](CC(=O)O)C(=O)N[C@@H](C)C(=O)N2)C(=O)N[C@@H](CC(=O)O)C(=O)N[C@@H](CCC(=O)O)C(=O)N[C@@H](C)C(=O)N[C@@H](C)C(=O)N[C@@H](Cc2ccccc2)C(=O)N[C@@H](CC(N)=O)C(=O)N1)C(=O)N[C@@H](Cc1csc2ccccc12)C(=O)N[C@@H](CCC(N)=O)C(N)=O (stereo partly drawn) [I-437, Ac-PL3-Asp-Ala-B5-Asp-Glu-Ala-Ala-Phe-Asn-S8-2OMeF-BztA-Gln-NH2]	–	–	2	44 (≈ 81.7 µg/mL)	17500	26	–	–	–
CC(=O)N1CCC[C@]12CC=CCCCC1(CCCC=CCCCOC(=O)N3CC[C@@](C(=O)N[C@@H](Cc4ccsc4)C(=O)N[C@@H](Cc4csc5ccccc45)C(=O)N[C@@H](CCC(N)=O)C(N)=O)(C3)NC(=O)[C@H](CC(N)=O)NC(=O)[C@H](Cc3ccccc3)NC(=O)[C@H](CCCCNC(=O)C34CC5CC(CC(C5)C3)C4)NC(=O)[C@H](C)NC(=O)[C@H](CC(=O)O)NC(=O)[C@H](CC(=O)O)NC1=O)NC(=O)[C@H](CC(C)(C)C)NC(=O)[C@H](CC(=O)O)NC2=O (stereo partly drawn) [I-899, Ac-PL3-Asp-Npg-B5-Asp-Asp-Ala-[AdamantC]Lys-Phe-Asn-PyrS2-3Thi-BztA-Gln-NH2]	> 20000	28	2.26	40 (≈ 85.5 µg/mL)	–	–	–	–	–
CC(=O)N1CCC[C@]12CC=CCCCC1(CCCC=CCCCOC(=O)N3CC[C@@](C(=O)N[C@@H](Cc4ccccc4F)C(=O)N[C@@H](Cc4csc5ccccc45)C(=O)N[C@@H](CO)C(N)=O)(C3)NC(=O)[C@H](CO)NC(=O)[C@H](Cc3ccccc3)NC(=O)[C@H](C)NC(=O)[C@H](C)NC(=O)[C@H](CC(=O)O)NC(=O)[C@H](CC(=O)O)NC1=O)NC(=O)[C@H](CC(C)(C)C)NC(=O)[C@H](CC(=O)O)NC2=O (stereo partly drawn) [I-1101, Ac-PL3-Asp-Npg-B5-Asp-Asp-Ala-Ala-Phe-Ser-PyrS2-2FF-BztA-Ser-NH2]	27000	14	2.22	48 (≈ 89.4 µg/mL)	–	–	–	–	–
